According to a melting point compilation (Tetko et al.; mined from patent text by program, amines drawn as free bases though some values may be those of a salt):

SMILES | melting point [°C]
ON=C(Cn1ccnc1)c1ccc(Cl)cc1Cl | 205 to 206
N#Cc1ccc(CCC(N)=O)cc1 | 220
CS(=O)(=O)OCCc1ccc(-c2cccnc2)cc1 | 66 to 68
C1=C(c2c[nH]c3ccccc23)CCN(CC2CCc3ccccc3O2)C1 (configuration not stated) | 171 to 173
O=C(O)Cc1ccc(NC(=O)C(COc2cccc(Cl)c2)NS(=O)(=O)c2ccc(Br)cc2)cc1 (racemic) | 225 to 228
O=c1oc(-c2cc(C(F)(F)F)cc(C(F)(F)F)c2)cc(O)c1SCc1ccccc1 | 80 to 82
O=C1Cc2cccc(OCC3CO3)c2ON1 (configuration not stated) | 158 to 160
O=C(Nc1ccc(-n2nc(C(F)(F)F)cc2C(F)(F)F)cc1)c1ccc(I)cc1 | 196 to 198
Nc1cnc2c(c1)CCCC2 | 97 to 98
CC(C)(C)NC(=O)c1ccc(N2CCN(c3ccncc3)CC2)cc1 | 214 to 217
CS(=O)(=O)Nc1cc(NS(C)(=O)=O)cc([N+](=O)[O-])c1 | 223 to 224
CCN(CC)CC(=O)Nc1ccc(C2=NN(C(C)=O)C(C)Cc3cc4c(cc32)OCO4)cc1 (configuration not stated) | 175 to 176
CC(C)Oc1ncnc2c(O)ccc(Cl)c12 | 126
C=C1N(c2ccccc2)C(=O)OC12CCN(C(=O)N1CCN(C)CC1)CC2 | 139 to 140
CC(=O)Nc1ccc(C(F)(F)F)cc1C | 160
COCCN(CCOC)c1ccc(P(=O)(C(=O)c2c(C)cc(C)cc2C)C(=O)c2c(C)cc(C)cc2C)cc1 | 103 to 106
CC(C)(C)OC(=O)N1CCC(ON=C(c2ccccc2)c2cc3ccncc3[nH]2)C1 (configuration not stated) | 80 to 82
COc1ccc(C2C(C(=O)/C=C/c3ccc(OCc4ccccc4)c(OC)c3)C(=O)CC(c3ccc(OCc4ccccc4)cc3)C2[N+](=O)[O-])cc1 (configuration not stated) | 76 to 78
CCCCCC1CCC(c2ccc(-c3cc(F)c(C(F)(F)Oc4cc(F)c(C(F)(F)F)c(F)c4)c(F)c3)c(F)c2)CC1 (configuration not stated) | 74
CCCCCC(C)Oc1cc(O)c2c(c1)OC(C)(C)C1CCC(=O)C=C21 (configuration not stated) | 185 to 189

SMILES | melting point [°C]
COC(=O)[C@@H]1CC[C@@H]2CN1C(=O)N2OCc1ccccc1 | 86
CCOC(=O)c1c(C)c(C(=O)c2ccc(SC)n2C)n2c1C(C(=O)OCC)CC2 (configuration not stated) | 142 to 143
CCC(CC)c1ccc(Cl)c2nc3n(c12)CCCCN3c1ncc(C(F)(F)F)cc1Cl | 108 to 110
CC(=O)NC[C@H]1CN(c2ccc(N3C[C@H]4CN(C(=O)OCc5ccccc5)C[C@H]4C3)cc2)C(=O)O1 | 135 to 140
CC(C)NC(=O)c1nc(Cl)c(Cl)[nH]1 | 150
O=c1c2c(Cl)cccc2nc(C(S)c2ncnc3[nH]cnc23)n1-c1ccccc1F (configuration not stated) | 244
COc1cccc(OC2COc3ccc(O)cc3C2O)c1 (configuration not stated) | 187 to 189
CNC(=O)c1cccc(NC(=O)CC2CCCCC2)c1 | 183
O=C(NC1CCC2(CC1)CSC1=C(O2)c2ccccc2C(=O)C1=O)Oc1cccc(C(F)(F)F)c1 (configuration not stated) | 198 to 199
C=C1C2=C(CCCC2)C(=O)N1c1ccc(Cl)cc1F | 84 to 85.5
O=C1NC(=O)C(Cc2ccc(OCCON=Cc3ccncc3)cc2)S1 (configuration not stated) | 221
CCn1c(C)c(C(=O)c2ccc(N)cc2C(=O)O)c2ccccc21 | 187 to 189
N=C(N)c1ccncc1 | 136 to 140
CCCc1c(OCCCS(=O)(=O)c2ccc(C(=O)CCC#N)cc2)ccc(C(C)=O)c1O | 143 to 144
CC(C)c1ccc(N)c(C(=O)NCC2CCN(C(c3ccccc3)c3ccccc3)CC2)c1 | 114 to 116
CC1(C)SC2C(N3C(=O)c4ccccc4C3=O)C(=O)N2C1C(=O)OCc1ccc([N+](=O)[O-])cc1 (configuration not stated) | 233 to 234
CC(C)(C)OC(=O)N1CC(CCl)c2c1ccc1cc(C#N)ccc21 (configuration not stated) | 171 to 172
O=C(NCCCCCNC(=O)c1ccc(OC(F)(F)F)cc1)c1ccc(OC(F)(F)F)cc1 | 154 to 155
O=c1[nH]c2cc(Cl)c(Cl)cc2n1[C@@H]1C[C@H](CO)[C@@H](O)[C@H]1O | 219 to 220
CC(=O)N(c1cc(F)c(C#N)cc1F)c1nnnn1-c1ccc(OC(F)(F)F)cc1 | 108 to 110

SMILES | melting point [°C]
COc1cc(CCNC(=O)C(F)(F)F)ccc1[N+](=O)[O-] | 104
CCCCOc1cc(/C=C/C(=O)O)n(Cc2ccc(C(F)(F)F)cc2)n1 | 153 to 155
COc1cc(C(=O)O)ccc1Cn1cc(/C=C/C(=O)N(C)C)c2ccc(/C=C/C(=O)N(C)C)cc21 | 270 to 272
CN(C)CC1(C2(O)CCCCC2)Cc2cc3c(cc21)N(S(C)(=O)=O)CC3 (configuration not stated) | 156 to 158
CC(CCN1C(=O)c2ccccc2C1=O)Cc1ccc(C(=O)CCC(=O)O)cc1 (configuration not stated) | 142 to 143
OCc1ccccc1NC1CCN(Cc2ccccc2)CC1 | 164 to 168
COc1cc(C)nc(NC(=O)NS(=O)(=O)C2=CCCCC2)n1 | 163 to 166
NCCc1c[nH]c2ccc(Cc3ccccc3)cc12 | 150 to 153
CC(C)Cc1cc(=O)c2cc(OCCCCCN3CCC(O)CC3)ccc2o1 | 98 to 99
Cc1ccc(-c2ccc3c(c2)C=C(C(=O)Nc2ccc(CS(=O)Cc4ccccc4)cc2)CCO3)cc1 (configuration not stated) | 208 to 209
CC(C)(C)NC(=O)c1cc(Cl)ccc1N | 126 to 127
CC(=O)NCCC1=CCc2ccc3c(c21)CCO3 | 153 to 155
C[C@@H]1N=C(c2ccccc2Cl)c2cc([N+](=O)[O-])ccc2NC1=O | 200 to 202
CON(C(=O)c1cn(C)nc1C(F)F)C(C)c1ccc(I)cc1 (configuration not stated) | 72 to 74
CCNC(=O)C=Cc1ccc(C(=C(CC)c2ccccc2)c2ccccc2)cc1 | 192 to 193
CCOc1ccc(C(=O)C2CC2)cc1 | 67 to 70
O=C(O)c1nnc(-c2ccc(Cl)cc2)o1 | 277 to 284
COc1cc(C2c3cc4c(cc3C(NC3=CC(=O)N(Cc5ccc(C(F)(F)F)cc5)C3=O)C3COC(=O)C23)OCO4)cc(OC)c1O (configuration not stated) | 184 to 186
COc1ccc(C#CCCCCOc2ccc(C(=O)c3cccc(C(=O)O)c3)cc2CCC(=O)O)cc1 | 144 to 146
c1ccc2c(Sc3c4ccccc4cc4ccccc34)c3ccccc3cc2c1 | 257

More lines, now with the values ahead:

melting point [°C] | SMILES
156 to 157 | CCOC(=O)c1ccc(CCN2CCN(S(=O)(=O)c3ccccc3)CC2)cc1
241 to 242 | COC(=O)c1ncc(O)c2c1[nH]c1ccccc12
193 to 195 | COc1ccc(C(=O)Nc2c(Cl)cncc2Cl)cc1OC1CC=CC1
251 | COc1cc(OC)c2c(=O)[nH]c(-c3ccc(CCC(=O)O)cc3)nc2c1
169 to 179 | Cc1cc(NS(=O)(=O)c2ccccc2)cnc1CCCC(=O)O
139 to 141 | Cc1cc(C)n(Cc2ccc(Cl)c(Cl)c2)c(=O)c1C#N
147 to 149 | CCCCNc1nn(C(=O)OC)c2c1c(=O)n(CCC)c1ccccc21
240 to 243 | CCOc1cc(-c2nnc3c4ccccc4c(OCc4nc[nH]n4)nn23)no1
140 to 141 | CCN1c2ncc(COc3ccccc3)cc2C(=O)N(C)c2ccc(Cl)nc21
124 to 125 | COc1ccc(-c2cc(N(C)c3c(C)cc(C)cc3C)nc(C)n2)cc1OC
258 to 260 | CN(c1cccc2cc(-c3ncc(C(=O)O)s3)[nH]c12)S(=O)(=O)c1cccs1
200 to 210 | COc1ccc(Sc2nc(C)n(Cc3cc4c(cc3Cl)OCO4)c2C(=O)O)cc1
106 to 111 | CCOP(=O)(CCCOc1ccc2c(c1)c(CC(N)=O)c(C)n2Cc1ccccc1)OCC
136 to 137 | COc1ccc(CC2C(=O)N(Cc3ccccc3)c3ccccc3N=C2C)cc1 (configuration not stated)
116 to 118 | CCOC(=O)c1c(NCc2ccc(OC)c(Cl)c2)ccnc1Cl
194 to 196 | Clc1ccc2c(c1)N(c1ncnc3cnccc13)CC2
129 to 130 | CC(C)Nc1cccnc1N1CCN(C(=O)c2ccc(C(=O)N[C@H](C)CO)cn2)CC1
155 to 157 | COc1cc(OC)nc(C(OC)(C(=O)NS(C)(=O)=O)c2ccccc2)n1 (configuration not stated)
173 to 174 | CCN(CC)CC1CCCCN1CC(=O)N1c2ccc(C)cc2C(=O)Nc2cccnc21 (configuration not stated)

melting point [°C] | SMILES
206 | CS(=O)(=O)c1ccc(-c2oc(CO)cc(=O)c2Oc2ccc(F)cc2)cc1
211 to 213 | Cn1ccc(-c2cc3nccnc3[nH]2)c1
138 to 139 | COC(=O)CCc1ccc(OCC2CN(c3ccccc3)C(=O)O2)cc1 (configuration not stated)
203 to 204 | O=C/C=C/c1cc2ccccc2[nH]1
> 245 | N#Cc1cnc2sc(-c3ccccc3)cc2c1Nc1cccc2cc[nH]c12
60 to 63 | CCOC(=O)COc1cccc2c1CC(Br)C2=O (configuration not stated)
108 to 111 | Clc1ccc(Oc2ccccc2Oc2ncc(Cl)cn2)nc1
218 to 219 | CC(C)c1nnn(-c2c(Cl)cccc2Cl)c1COc1ccc(N(C)C(=O)c2ccc(C(=O)O)cc2)c(C(F)(F)F)n1
178 | COC(C)(C)c1cccc(Cn2nnc3c(-c4ccc(C)o4)nc(N)nc32)n1
205 to 206 | COCOc1ccc(Cl)cc1-c1cc(-c2cccc([N+](=O)[O-])c2)c(C#N)c(NC(=O)c2ccccc2)n1
239 to 240 | O=C(O)c1ccc(-c2nnc(-c3ccccc3[N+](=O)[O-])o2)cc1
169 to 171 | CCOCc1nc2c(N)nc3cc(OCCCCCCNC(C)=O)ccc3c2n1CC(C)(C)NS(C)(=O)=O
245 | Cc1ccnc(N2CCN(C3Sc4ccccc4NC3=O)CC2)c1 (configuration not stated)
249 to 250 | CCc1nc2c(NC(=O)c3ccccc3)nc3ccccc3c2n1CCCCNS(C)(=O)=O
88 to 89 | CCc1noc(-c2cn(-c3ccccc3OCc3ccc(Cl)cc3)cn2)n1
100 to 103 | FCc1cccc(C#CCCn2cc(-c3ccc(F)cc3)nn2)n1
> 400 | CC(C)CC(=O)Oc1n[nH]c(=O)c2nc3cc(Cl)ccc3c(O)c12
148 to 150 | Cc1noc(NS(=O)(=O)c2cc(Cl)ccc2Cl)c1Br
